{
  "source": "patent US20260191835A1",
  "about": "“COMBINATIONS COMPRISING A MENIN-MLL INHIBITOR AND AT LEAST ONE OTHER THERAPEUTIC AGENT” (JANSSEN PHARMACEUTICA NV, priority 2022, published 2026)",
  "system": "MV4-11 cells",
  "assay": "In vitro proliferation (Cell Titer Glo, 6 days) of Compound 51 in combination with gilteritinib, midostaurin or decitabine, MV4-11",
  "format": "cell-based",
  "parameters": "key to Synergy/antagonism call (maxR test), MV4-11 Cell Proliferation: synergy is indicated by “**”; antagonism is indicated by “*”; no asterisk: absence of any asterisk indicates an additive effect",
  "settings": "for combination effect on proliferation (cytotoxicity): 6-day CellTiter-Glo matrix",
  "protocol": "3) In Vitro Proliferation—Menin-MLL Inhibitor in Combination with FLT3 Inhibitor (Gilteritinib or Midostaurin), DNA Intercalating Agent (Idarubicin) or Hypomethylating Agent (Decitabine)\nThe effect of Compound 51 in combination with gilteritinib, midostaurin, idarubicin or decitabine was determined in proliferation assays.\nAML cell lines MOLM-13, OCI-AML3 and MV4-11 were purchased from DSMZ. MOLM-13 were grown in RPMI medium supplemented with 10% Fetal Bovine Serum (FBS) and 1% penicillin/streptomycin. MV4-11 cells were grown in IMDM medium supplemented with 10% FBS and 1% penicillin/streptomycin. OCI-AML3 cells were cultured in 80-90% alpha-MEM (with or without ribo- and deoxyribonucleosides)+10-20% FBS. All cell lines were cultured at 37° C. in 5% CO2 atmosphere.\nAML cell lines (10-20×10^3 cells/well) were seeded in 96-well plates and grown for 6 days in serum (10%)-containing medium in the presence or absence of inhibitors at the indicated concentrations. Proliferation was analyzed by means of a Cell Titer Glo assay using the […] (Promega, Madison, WI, USA), according to the manufacturer's instructions. Data are mean with standard deviation from two to four independent experiments in technical triplicates.\nR-based Biochemically Intuitive Generalized Loewe (BIGL) model implemented with a highest single agent (HSA) null model. Specifically, the BIGL methodology was applied to calculate drug-drug interactions (Van der Borght, K., Tourny, A., Bagdziunas, R. et al. BIGL: Biochemically Intuitive Generalized Loewe null model for prediction of the expected combined effect compatible with partial agonism and antagonism. Sci Rep 7, 17935 (2017); Thas, O., Tourny, A., Verbist, B., Hawinkel, S., Nazarov, M., Mutambanengwe, K., & Bijnens, L. Statistical detection of synergy: New methods and a comparative study. Pharmaceutical Statistics (2021)).\nSynergy matrix results of the BIGL analysis of the cell line data with HSA as mean model calculated on the basis of the cellular metabolic activity using Cell Titer-Glo assay. Bootstrap confidence intervals are indicated. Effect sizes and their confidence intervals are shown. […] No significant average effect if zero is included in the interval.",
  "key": {"[1]": {"settings": "Compound 51 0.1 μm + Decitabine 0.15 μM"}, "[2]": {"settings": "Compound 51 0.1 μm + Decitabine 1.5 μM"}},
  "data": [
    {"smiles": "CC(=O)N1CCC(CN2CC[C@@H](Cc3cn(-c4ccc(F)cc4C(=O)N(C)C(C)C)c4cncc(C)c34)C2)CC1", "note": "[Compound 51]", "values": [
      {"measurement": "Effect size (BIGL, HSA null model), MV4-11 Cell Proliferation", "setting": "Compound 51 0.05 μm + Gilteritinib 0.3 μM", "result": "−0.02"},
      {"measurement": "Effect size (BIGL, HSA null model), MV4-11 Cell Proliferation", "setting": "Compound 51 0.05 μm + Gilteritinib 1 μM", "result": "−0.02"},
      {"measurement": "Effect size (BIGL, HSA null model), MV4-11 Cell Proliferation", "setting": "Compound 51 0.05 μm + Midostaurin 0.0012 μM", "result": "−0.02"},
      {"measurement": "Effect size (BIGL, HSA null model), MV4-11 Cell Proliferation", "setting": "Compound 51 0.05 μm + Midostaurin 0.006 μM", "result": "−0.07"},
      {"measurement": "Effect size (BIGL, HSA null model), MV4-11 Cell Proliferation", "setting": "Compound 51 0.05 μm + Midostaurin 0.025 μM", "result": "−0.14"},
      {"measurement": "Effect size (BIGL, HSA null model), MV4-11 Cell Proliferation", "setting": "Compound 51 0.05 μm + Midostaurin 0.05 μM", "result": "−0.13"},
      {"measurement": "Effect size (BIGL, HSA null model), MV4-11 Cell Proliferation", "setting": "Compound 51 0.05 μm + Midostaurin 0.1 μM", "result": "−0.04"},
      {"measurement": "Effect size (BIGL, HSA null model), MV4-11 Cell Proliferation", "setting": "Compound 51 0.05 μm + Midostaurin 0.5 μM", "result": 0.03},
      {"measurement": "Effect size (BIGL, HSA null model), MV4-11 Cell Proliferation", "setting": "Compound 51 0.1 μm + Decitabine 0.0015 μM", "result": 0.01},
      {"measurement": "Effect size (BIGL, HSA null model), MV4-11 Cell Proliferation", "setting": "Compound 51 0.1 μm + Decitabine 0.035 μM", "result": "−0.04"},
      {"measurement": "Effect size (BIGL, HSA null model), MV4-11 Cell Proliferation", "setting": "[1]", "result": "−0.09"},
      {"measurement": "Synergy/antagonism call (maxR test), MV4-11 Cell Proliferation", "setting": "[1]", "result": "**"},
      {"measurement": "Effect size (BIGL, HSA null model), MV4-11 Cell Proliferation", "setting": "[2]", "result": "−0.11"},
      {"measurement": "Synergy/antagonism call (maxR test), MV4-11 Cell Proliferation", "setting": "[2]", "result": "**"},
      {"measurement": "Effect size (BIGL, HSA null model), MV4-11 Cell Proliferation", "setting": "Compound 51 0.1 μm + Decitabine 3 μM", "result": "−0.06"},
      {"measurement": "Effect size (BIGL, HSA null model), MV4-11 Cell Proliferation", "setting": "Compound 51 0.1 μm + Gilteritinib 0.0005 μM", "result": "−0.07"},
      {"measurement": "Effect size (BIGL, HSA null model), MV4-11 Cell Proliferation", "setting": "Compound 51 0.1 μm + Gilteritinib 0.005 μM", "result": "−0.03"},
      {"measurement": "Effect size (BIGL, HSA null model), MV4-11 Cell Proliferation", "setting": "Compound 51 0.1 μm + Gilteritinib 0.01 μM", "result": "−0.02"},
      {"measurement": "Effect size (BIGL, HSA null model), MV4-11 Cell Proliferation", "setting": "Compound 51 0.1 μm + Gilteritinib 0.05 μM", "result": "−0.02"},
      {"measurement": "Effect size (BIGL, HSA null model), MV4-11 Cell Proliferation", "setting": "Compound 51 0.1 μm + Gilteritinib 0.3 μM", "result": "−0.02"},
      {"measurement": "Effect size (BIGL, HSA null model), MV4-11 Cell Proliferation", "setting": "Compound 51 0.1 μm + Gilteritinib 1 μM", "result": "−0.02"},
      {"measurement": "Effect size (BIGL, HSA null model), MV4-11 Cell Proliferation", "setting": "Compound 51 0.1 μm + Midostaurin 0.0012 μM", "result": "−0.03"},
      {"measurement": "Effect size (BIGL, HSA null model), MV4-11 Cell Proliferation", "setting": "Compound 51 0.1 μm + Midostaurin 0.006 μM", "result": "−0.06"},
      {"measurement": "Effect size (BIGL, HSA null model), MV4-11 Cell Proliferation", "setting": "Compound 51 0.1 μm + Midostaurin 0.025 μM", "result": "−0.08"},
      {"measurement": "Effect size (BIGL, HSA null model), MV4-11 Cell Proliferation", "setting": "Compound 51 0.1 μm + Midostaurin 0.05 μM", "result": "−0.09"},
      {"measurement": "Effect size (BIGL, HSA null model), MV4-11 Cell Proliferation", "setting": "Compound 51 0.1 μm + Midostaurin 0.1 μM", "result": "−0.04"},
      {"measurement": "Effect size (BIGL, HSA null model), MV4-11 Cell Proliferation", "setting": "Compound 51 0.1 μm + Midostaurin 0.5 μM", "result": 0.03},
      {"measurement": "Effect size (BIGL, HSA null model), MV4-11 Cell Proliferation", "setting": "Compound 51 0.5 μm + Decitabine 0.0015 μM", "result": 0},
      {"measurement": "Effect size (BIGL, HSA null model), MV4-11 Cell Proliferation", "setting": "Compound 51 0.5 μm + Decitabine 0.035 μM", "result": "−0.01"},
      {"measurement": "Effect size (BIGL, HSA null model), MV4-11 Cell Proliferation", "setting": "Compound 51 0.5 μm + Decitabine 0.15 μM", "result": "−0.02"},
      {"measurement": "Effect size (BIGL, HSA null model), MV4-11 Cell Proliferation", "setting": "Compound 51 0.5 μm + Gilteritinib 0.0005 μM", "result": "−0.02"},
      {"measurement": "Effect size (BIGL, HSA null model), MV4-11 Cell Proliferation", "setting": "Compound 51 0.5 μm + Gilteritinib 0.005 μM", "result": "−0.03"},
      {"measurement": "Effect size (BIGL, HSA null model), MV4-11 Cell Proliferation", "setting": "Compound 51 0.5 μm + Gilteritinib 0.01 μM", "result": "−0.02"},
      {"measurement": "Effect size (BIGL, HSA null model), MV4-11 Cell Proliferation", "setting": "Compound 51 0.5 μm + Gilteritinib 0.05 μM", "result": "−0.02"},
      {"measurement": "Effect size (BIGL, HSA null model), MV4-11 Cell Proliferation", "setting": "Compound 51 0.5 μm + Gilteritinib 0.3 μM", "result": "−0.02"},
      {"measurement": "Effect size (BIGL, HSA null model), MV4-11 Cell Proliferation", "setting": "Compound 51 0.5 μm + Gilteritinib 1 μM", "result": "−0.02"},
      {"measurement": "Effect size (BIGL, HSA null model), MV4-11 Cell Proliferation", "setting": "Compound 51 1 μm + Decitabine 0.0015 μM", "result": 0},
      {"measurement": "Effect size (BIGL, HSA null model), MV4-11 Cell Proliferation", "setting": "Compound 51 1 μm + Decitabine 0.035 μM", "result": "−0.01"},
      {"measurement": "Effect size (BIGL, HSA null model), MV4-11 Cell Proliferation", "setting": "Compound 51 1 μm + Decitabine 0.15 μM", "result": "−0.02"},
      {"measurement": "Effect size (BIGL, HSA null model), MV4-11 Cell Proliferation", "setting": "Compound 51 1 μm + Decitabine 1.5 μM", "result": "−0.03"},
      {"measurement": "Effect size (BIGL, HSA null model), MV4-11 Cell Proliferation", "setting": "Compound 51 1 μm + Decitabine 3 μM", "result": "−0.03"},
      {"measurement": "Effect size (BIGL, HSA null model), MV4-11 Cell Proliferation", "setting": "Compound 51 1 μm + Gilteritinib 0.0005 μM", "result": "−0.02"},
      {"measurement": "Effect size (BIGL, HSA null model), MV4-11 Cell Proliferation", "setting": "Compound 51 1 μm + Gilteritinib 0.005 μM", "result": "−0.02"},
      {"measurement": "Effect size (BIGL, HSA null model), MV4-11 Cell Proliferation", "setting": "Compound 51 1 μm + Gilteritinib 0.01 μM", "result": "−0.02"},
      {"measurement": "Effect size (BIGL, HSA null model), MV4-11 Cell Proliferation", "setting": "Compound 51 1 μm + Gilteritinib 0.05 μM", "result": "−0.02"},
      {"measurement": "Effect size (BIGL, HSA null model), MV4-11 Cell Proliferation", "setting": "Compound 51 1 μm + Gilteritinib 0.3 μM", "result": "−0.02"},
      {"measurement": "Effect size (BIGL, HSA null model), MV4-11 Cell Proliferation", "setting": "Compound 51 1 μm + Gilteritinib 1 μM", "result": "−0.02"},
      {"measurement": "Effect size (BIGL, HSA null model), MV4-11 Cell Proliferation", "setting": "Compound 51 1 μm + Midostaurin 0.0012 μM", "result": 0.02},
      {"measurement": "Effect size (BIGL, HSA null model), MV4-11 Cell Proliferation", "setting": "Compound 51 1 μm + Midostaurin 0.006 μM", "result": 0.01},
      {"measurement": "Effect size (BIGL, HSA null model), MV4-11 Cell Proliferation", "setting": "Compound 51 1 μm + Midostaurin 0.025 μM", "result": 0},
      {"measurement": "Effect size (BIGL, HSA null model), MV4-11 Cell Proliferation", "setting": "Compound 51 1 μm + Midostaurin 0.05 μM", "result": 0},
      {"measurement": "Effect size (BIGL, HSA null model), MV4-11 Cell Proliferation", "setting": "Compound 51 1 μm + Midostaurin 0.1 μM", "result": 0},
      {"measurement": "Effect size (BIGL, HSA null model), MV4-11 Cell Proliferation", "setting": "Compound 51 1 μm + Midostaurin 0.5 μM", "result": 0.03},
      {"measurement": "combination effect on proliferation (cytotoxicity)", "setting": "in combination with decitabine, MV4-11", "result": "synergistically cytotoxic"},
      {"measurement": "combination effect on proliferation at low doses of gilteritinib", "setting": "in combination with gilteritinib 10 nM, MV4-11", "result": "synergistic effect"},
      {"measurement": "combination effect on proliferation (cytotoxicity)", "setting": "in combination with gilteritinib, MV4-11", "result": "not antagonistically cytotoxic"},
      {"measurement": "combination effect on proliferation (cytotoxicity)", "setting": "in combination with midostaurin, MV4-11", "result": "not antagonistically cytotoxic"}
    ]}
  ]
}
